According to patent publication EP4624466A1, “DEGRADER FOR DECOMPOSING CMET PROTEIN, AND PHARMACEUTICAL COMPOSITION COMPRISING SAME” (Innocure Therapeutics, Inc., priority 2022, dated 2024):
Like-named read-outs stand apart in the source and are kept apart here.

Experiments:
[1] = system: MKN-45; test: Cell viability / antiproliferative assay (WST-8), MKN-45; settings: read-out: MKN-45 IC50;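 note: MKN-45 is a human gastric cancer line overexpressing c-MET, growth inhibition read as WST-8 formazan absorbance at 450 nm after 2 h dye incubation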
Protocol: c-MET overexpressing human gastric cancer cell lines [MKN45] and [SNU638] were cultured in RPMI medium with 10% fetal bovine serum, penicillin (100U/ml), and streptomycin (100mg/ml), and c-MET exon 14 skipping mutant human gastric cancer cell lines [Hs746T] were cultured in DMEM media. The c-MET overexpressing human lung cancer cell line EBC-1 was cultured in MEM media with the addition of 10% fetal bovine serum, penicillin (100U/ml), and streptomycin (100mg/ml). […] The compound synthesized in accordance with the present invention was prepared with a raw material solution of 10 mM dissolved in DMSO (dimethyl sulfoxide), and was sequentially diluted and processed.
In order to observe the inhibitory activity on cell growth, cells were dispensed in a 96-well plate at a concentration of 5,000 cells/well, and then treated with the compound prepared at various concentrations for 72 hours. The viability of the cells was calculated using GraphicPad Prism 8.0 software by adding 10 ml per well of WST-8 (water soluble tetrazolium salt) sample, which reacts with dehydrogenase present in the electron transport system of mitochondria to produce formazon, incubated for 2 hours, and measured absorbance at 450 nm.

[2] = biological target: c-MET (Homo sapiens, UniProt P08581); test: c-MET protein degradation (Simple Western), MKN-45; assay type: cell-based; parameters: assess the resolution of the compound of the present invention for c-MET expressed in cells; endogenous in cells; host or cells: MKN45 (human gastric cancer); settings: c-MET overexpressing gastric cancer cell line MKN-45, treated 24 hours
Protocol: In order to assess the resolution of the compound of the present invention for c-MET expressed in cells, cells were dispensed in a 12-well plate at a concentration of 2 × 10^5 cells/well, and then gastric cancer cell lines were treated with samples for 24 hours and lung cancer cell lines were treated for 48 hours. Cell lysates were collected using a scraper on ice, centrifuged at 4°C15,000 rpm for 30 min to obtain a protein-containing supernatant. Protein expression was then measured using the Simple Western Automated Western Blot System Abby instrument using 3 µg of protein for each sample. SDS and heat-induced denaturation proteins were separated by molecular weight, attached to capillary, reacted with anti-c-MET or anti-GAPDH antibodies, which are primary antibodies, and then reacted with HRP-conjugated secondary antibodies, and analyzed the protein expression signal with compass software. Protein expression was normalized based on the expression value of GAPDH, and protein development in each sample was measured as a percentage (%) based on 100% of samples treated with 0.1% DMSO carriers, and DC50 (concentration of a compound where 50% protein inhibition is achieved) was calculated from the change in protein expression amount due to compound treatment.

[3] = MKN-45 cells, 72 hours, WST-8, Table 1

Sequence of c-MET (P08581 25-1390): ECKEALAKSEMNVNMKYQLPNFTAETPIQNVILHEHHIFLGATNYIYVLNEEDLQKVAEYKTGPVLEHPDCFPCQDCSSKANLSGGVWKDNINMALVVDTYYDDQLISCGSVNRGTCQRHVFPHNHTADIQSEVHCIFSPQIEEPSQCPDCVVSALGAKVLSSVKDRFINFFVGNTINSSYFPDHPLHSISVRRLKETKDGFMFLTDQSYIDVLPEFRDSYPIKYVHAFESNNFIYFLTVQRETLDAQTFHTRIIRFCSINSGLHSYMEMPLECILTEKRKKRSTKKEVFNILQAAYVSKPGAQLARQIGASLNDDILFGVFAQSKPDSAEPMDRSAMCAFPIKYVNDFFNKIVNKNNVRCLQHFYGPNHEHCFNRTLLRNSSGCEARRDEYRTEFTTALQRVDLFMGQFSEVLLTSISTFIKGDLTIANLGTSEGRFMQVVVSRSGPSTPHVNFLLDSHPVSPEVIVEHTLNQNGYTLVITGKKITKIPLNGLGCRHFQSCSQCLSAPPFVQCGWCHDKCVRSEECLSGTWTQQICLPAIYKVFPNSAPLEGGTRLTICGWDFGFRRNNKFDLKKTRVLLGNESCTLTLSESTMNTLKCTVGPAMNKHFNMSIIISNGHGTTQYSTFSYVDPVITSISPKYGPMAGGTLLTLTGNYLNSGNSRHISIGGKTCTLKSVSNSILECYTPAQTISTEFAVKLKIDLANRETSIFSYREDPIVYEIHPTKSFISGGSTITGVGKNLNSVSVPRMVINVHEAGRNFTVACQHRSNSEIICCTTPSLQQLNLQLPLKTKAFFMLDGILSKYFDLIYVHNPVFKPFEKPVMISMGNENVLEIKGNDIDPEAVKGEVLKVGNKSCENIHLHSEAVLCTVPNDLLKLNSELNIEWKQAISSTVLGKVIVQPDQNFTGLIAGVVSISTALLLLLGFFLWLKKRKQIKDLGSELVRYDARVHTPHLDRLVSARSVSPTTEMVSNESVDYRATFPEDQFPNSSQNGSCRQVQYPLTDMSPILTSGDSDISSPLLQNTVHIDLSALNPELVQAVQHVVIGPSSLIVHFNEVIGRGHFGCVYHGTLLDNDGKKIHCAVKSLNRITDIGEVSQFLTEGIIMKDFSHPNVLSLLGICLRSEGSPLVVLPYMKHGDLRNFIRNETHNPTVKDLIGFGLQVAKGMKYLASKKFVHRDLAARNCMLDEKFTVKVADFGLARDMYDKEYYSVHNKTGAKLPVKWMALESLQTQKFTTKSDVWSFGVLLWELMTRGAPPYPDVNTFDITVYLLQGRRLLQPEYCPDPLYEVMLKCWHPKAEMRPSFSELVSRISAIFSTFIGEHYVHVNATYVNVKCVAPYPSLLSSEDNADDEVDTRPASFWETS

Row | Structure (SMILES) | IC50 ([1]; Homo sapiens, MKN-45, 72 h) | DC50 ([2]; Table 2) | further results
1 | Cc1nn(C2CCC(=O)NC2=O)c(=O)c2ccc(N3CCN(CCCC(=O)N4CCC(COc5cnc(-c6cccc(Cn7nc(-c8cccc(C#N)c8)ccc7=O)c6)nc5)CC4)CC3)cc12 (stereo not shown) [ICT-0001175, 3-(1-(3-(5-((1-(4-(4-(2-(2,6-dioxopiperidine-3-yl)-4-methyl-1-oxo-1,2-dihydropthalazine-6-yl)piperazine-1-yl)butanoyl)piperidine-4-il)methoxy)pyrimidine-2-yl)benzyl)6-oxo-1,6-dihydropyridazine-3-yl)benzonitrile] | < 100 nM | < 100 nM | –
2 | Cc1nn(C2CCC(=O)NC2=O)c(=O)c2cc(N3CCN(C(=O)CCCCN4CCC(COc5cnc(-c6cccc(Cn7nc(-c8cccc(C#N)c8)ccc7=O)c6)nc5)CC4)CC3)ccc12 (stereo not shown) [ICT-0001251] | < 100 nM | < 100 nM | –
3 | Cc1nn(C2CCC(=O)NC2=O)c(=O)c2cc(N3CCN(CC(=O)N4CCC(COc5cnc(-c6cccc(Cn7nc(-c8cccc(C#N)c8)ccc7=O)c6)nc5)CC4)CC3)ccc12 (stereo not shown) [ICT-0001214, 3-(1-(3-(5-((1-(2-(4-(3-(2,6-dioxopiperidin-3-yl)-1-methyl-4-oxo-3,4-dihydropetalazine-6-yl)piperazine-1-il)acetyl)piperidine-4-il)methoxy)pyrimidine-2-yl)benzyl)6-oxo-1,6-dihydropyridazine-3-yl)benzonitrile] | – | < 100 nM | IC50 ([1]; MKN-45 cells, 72 hours, WST-8, Table 2): < 100 nM
4 | Cn1cc(-c2cnc3c(nnn3C[C@@H]3CN(c4ncc(-c5ccc(CN6CCN(C(=O)CCCCCCNc7cccc8cnn(C9CCC(=O)NC9=O)c(=O)c78)CC6)cc5)cn4)CCO3)n2)cn1 (stereo partly drawn) [ICT-0000960, 3-{8-[(7-{4-[(4-{2-[(2S)-2-{[5-(1-methyl-1H-pyrazole-4-yl)-1H-[1,2,3]triazolo[4,5-b]pyrazine-1-yl]methyl}morpholine-4-yl]pyrimidine-5-yl}phenyl)methyl]piperazine-1-yl}-7-oxoheptyl)amino]-1-oxo-1,2-dihydrophthalazine-2-yl}piperidine-2,6-dione] | < 100 nM | – | DC50 ([2]; Table 1): 100 to 1000 nM
5 | N#Cc1cccc(-c2ccc(=O)n(Cc3cccc(-c4ncc(OCC5CCN(C(=O)CCCN6CCN(c7ccc8c(=O)n(C9CCC(=O)NC9=O)ncc8c7)CC6)CC5)cn4)c3)n2)c1 (stereo not shown) [ICT-0001200] | < 100 nM | < 100 nM | –
6 | N#Cc1cccc(-c2ccc(=O)n(Cc3cccc(-c4ncc(OCC5CCN(CC(=O)N6CCN(c7ccc8c(=O)n(C9CCC(=O)NC9=O)ncc8c7)CC6)CC5)cn4)c3)n2)c1 (stereo not shown) [ICT-0001221] | < 100 nM | < 100 nM | –
7 | Cc1nn(C2CCC(=O)NC2=O)c(=O)c2cc(N3CCC(CN4CCN(CC(=O)N5CCC(COc6cnc(-c7cccc(Cn8nc(-c9cccc(C#N)c9)ccc8=O)c7)nc6)CC5)CC4)CC3)ccc12 (stereo not shown) [ICT-0001239] | < 100 nM | < 100 nM | –
8 | N#Cc1cccc(-c2ccc(=O)n(Cc3cccc(-c4ncc(OCC5CCN(CC(=O)NCCCCCc6ccc7c(=O)n(C8CCC(=O)NC8=O)ncc7c6)CC5)cn4)c3)n2)c1 (stereo not shown) [ICT-0001206] | < 100 nM | < 100 nM | –
9 | Cn1cc(-c2cnc3c(nnn3C[C@@H]3CN(c4ncc(-c5ccc(CN6CCN(C(=O)COCCOCCOCCNc7cccc8cnn(C9CCC(=O)NC9=O)c(=O)c78)CC6)cc5)cn4)CCO3)n2)cn1 (stereo partly drawn) [ICT-0000942, 3-[8-(12-{4-[(4-{2-[(2S)-2-{[5-(1-methyl-1H-pyrazole-4-yl)-1H-[1,2,3]triazolo[4,5-b]pyrazine-1-yl]methyl}morpholine-4-day]pyrimidine-5-yl}phenyl)methyl]piperazine-1-il}-12-oxo-4,7,10-trioxa-1-azadodecane-1-yl)-1-oxo-1,2-dihydroptalazine-2-yl]piperidine-2,6-dione] | – | – | IC50 [1, 3]: < 100 nM
10 | Cn1cc(-c2cnc3c(nnn3C[C@@H]3CN(c4ncc(-c5ccc(CN6CCN(C(=O)COCCOCCOCCOCCOCCNc7cccc8cnn(C9CCC(=O)NC9=O)c(=O)c78)CC6)cc5)cn4)CCO3)n2)cn1 (stereo partly drawn) [ICT-0000967, 3-(8-((17-(4-(4-(2-((S)-2-((5-(1-methyl-1H-pyrazole-4-yl)-1H-[1,2,3]triazolo[4,5-b]pyrazine-1-yl)methyl)morpholino)pyrimidine-5-yl)benzyl)piperazine-1-yl)17-oxo-3,6,9,12,15-pentaheptacel)amino)-1-oxopthalazine-2(1H)-yl)piperidine-2,6-dione] | – | – | IC50 [1, 3]: 100 to 1000 nM
11 | N#Cc1cccc(-c2ccc(=O)n(Cc3cccc(-c4ncc(OCC5CCN(C(=O)CCCCCCNc6ccc7c(=O)n(C8CCC(=O)NC8=O)ncc7c6)CC5)cn4)c3)n2)c1 (stereo not shown) [ICT-0000985, 3-(1-{[3-(5-{[1-(7-{[2-(2,6-dioxopiperidin-3-yl)-1-oxo-1,2-dihydropthalazine-6-yl]amino}heptanoyl)piperidine-4-il]methoxy}pyrimidine-2-yl)phenyl]methyl}-6-oxo-1,6-dihydropyridazine-3-yl)benzonitrile] | < 100 nM | < 100 nM | –
12 | Cn1cc(-c2cnc3c(nnn3C[C@@H]3CN(c4ncc(-c5ccc(CN6CCN(C(=O)CCOCCOCCNc7cccc8cnn(C9CCC(=O)NC9=O)c(=O)c78)CC6)cc5)cn4)CCO3)n2)cn1 (stereo partly shown) [ICT-0000940] | 100 to 1000 nM | – | –
13 | Cn1cc(-c2cnc3c(nnn3C[C@@H]3CN(c4ncc(-c5ccc(CN6CCN(C(=O)CCOCCOCCOCCOCCOCCOCCNc7cccc8cnn(C9CCC(=O)NC9=O)c(=O)c78)CC6)cc5)cn4)CCO3)n2)cn1 (stereo partly shown) [ICT-0000968] | – | – | IC50 [1, 3]: 100 to 1000 nM
14 | Cn1cc(-c2cnc3c(nnn3C[C@@H]3CN(c4ncc(-c5ccc(CN6CCN(C(=O)CCCCCNc7cccc8cnn(C9CCC(=O)NC9=O)c(=O)c78)CC6)cc5)cn4)CCO3)n2)cn1 (stereo partly drawn) [ICT-0000970, 3-(8-((6-(4-(4-(2-((S)-2-((5-(1-methyl-1H-pyrazole-4-yl)-1H-[1,2,3]triazolo[4,5-b]pyrazine-1-yl)methyl)morpholino)pyrimidine-5-yl)benzyl)piperazine-1-yl)6-oxohexyl)amino)1-oxopthalazine-2(1H)-yl)piperidine-2,6-dione] | – | – | IC50 [1, 3]: < 100 nM
15 | Cn1cc(-c2cnc3c(nnn3C[C@@H]3CN(c4ncc(-c5ccc(CN6CCN(C(=O)CCOCCOCCOCCOCCNc7cccc8cnn(C9CCC(=O)NC9=O)c(=O)c78)CC6)cc5)cn4)CCO3)n2)cn1 (stereo partly drawn) [ICT-0000946, 3-[8-(16-{4-[(4-{2-[(2S)-2-{[5-(1-methyl-1H-pyrazole-4-yl)-1H-[1,2,3]triazolo[4,5-b]pyrazine-1-yl]methyl}morpholine-4-day]pyrimidine-5-yl}phenyl)methyl]piperazine-1-yl}-16-oxo-4,7,10,13-tetraoxa-1-azahexadecane-1-yl)-1-oxo-1,2-dihydroptalazine-2-yl]piperidine-2,6-dione] | – | – | IC50 [1, 3]: 100 to 1000 nM
16 | Cc1nn(C2CCC(=O)NC2=O)c(=O)c2cc(N3CCN(C(=O)CN4CCC(COc5cnc(-c6cccc(Cn7nc(-c8cccc(C#N)c8)ccc7=O)c6)nc5)CC4)CC3)ccc12 (stereo not shown) [ICT-0001115, 3-(1-(3-(5-((1-(2-(4-(3-(2,6-dioxopiperidin-3-yl)-1-methyl-4-oxo-3,4-dihydropetalazine-6-yl)piperazine-1-yl)2-oxoethyl)piperidine-4-il)methoxy)pyrimidine-2-yl)benzyl)6-oxo-1,6-dihydropyridazine-3-yl)benzonitrile] | – | < 100 nM | –
17 | Cc1nn(C2CCC(=O)NC2=O)c(=O)c2ccc(N3CCN(c4ccc(NCC(=O)N5CCC(COc6cnc(-c7cccc(Cn8nc(-c9cccc(C#N)c9)ccc8=O)c7)nc6)CC5)cc4)CC3)cc12 (stereo not shown) [ICT-0001240, 3-(1-(3-(5-((1-((4-(4-(2-(2,6-dioxopiperidin-3-yl)-4-methyl-1-oxo-1,2-dihydropthalazine-6-yl)piperazine-1-yl)phenyl)glycyl)piperidine-4-il)methoxy)pyrimidine-2-yl)benzyl)6-oxo-1,6-dihydropyridazine-3-yl)benzonitrile] | < 100 nM | – | –
18 | Cc1nn(C2CCC(=O)NC2=O)c(=O)c2ccc(N3CCN(CC4CCN(CC(=O)N5CCC(COc6cnc(-c7cccc(Cn8nc(-c9cccc(C#N)c9)ccc8=O)c7)nc6)CC5)CC4)CC3)cc12 (stereo not shown) [ICT-0001256] | – | < 100 nM | –
19 | Cc1nn(C2CCC(=O)NC2=O)c(=O)c2ccc(NCCCC(=O)N3CCC(COc4cnc(-c5cccc(Cn6nc(-c7cccc(C#N)c7)ccc6=O)c5)nc4)CC3)cc12 (stereo not shown) [ICT-0000989] | < 100 nM | – | –
20 | N#Cc1cccc(-c2ccc(=O)n(Cc3cccc(-c4ncc(OCC5CCN(C(=O)CCCCCNc6ccc7c(=O)n(C8CCC(=O)NC8=O)ncc7c6)CC5)cn4)c3)n2)c1 (stereo not shown) [ICT-0000984, 3-(1-{[3-(5-{[1-(6-{[2-(2,6-dioxopiperidin-3-yl)-1-oxo-1,2-dihydropthalazine-6-yl]amino}hexanoyl)piperidine-4-il]methoxy}pyrimidine-2-yl)phenyl]methyl}-6-oxo-1,6-dihydropyridazine-3-yl)benzonitrile] | < 100 nM | – | –
21 | N#Cc1cccc(-c2ccc(=O)n(Cc3cccc(-c4ncc(OCC5CCN(C(=O)CCOCCOCCOCCOCCNc6cccc7cnn(C8CCC(=O)NC8=O)c(=O)c67)CC5)cn4)c3)n2)c1 (stereo not shown) [ICT-0000907] | < 100 nM | – | –
22 | Cc1nn(C2CCC(=O)NC2=O)c(=O)c2cc(N3CCC(C(=O)NCCCNC(=O)CN4CCC(COc5cnc(-c6cccc(Cn7nc(-c8cccc(C#N)c8)ccc7=O)c6)nc5)CC4)CC3)ccc12 (stereo not shown) [ICT-0001238] | – | > 1000 nM | –
